The values below come from patent publication US9650420B2, “Peptides for preventing or treating bone diseases and use thereof” (KYUNGPOOK NATIONAL UNIVERSITY INDUSTRY—ACADEMIC COOPERATION …, priority 2015, dated 2017).

Where no end group is shown, it is not given here.

Assay [1] has as its system bone marrow hematopoietic progenitor cells in blood. Nature of the assay: Colony-forming unit (CFU) assay: number of bone marrow hematopoietic progenitor cells in blood of normal mice. The format is in vivo, C57BL/6 mice. As to conditions: normal mouse, 50 μg/kg intravenous injection to tail, blood collected after 60 minutes; p<0.05. Here is the method: In order to measure the number of bone marrow hematopoietic progenitor cells in blood of a mouse, CFU assays were conducted. A mouse was anesthetized, and then, 500 μl to 700 μl of blood was collected from the heart into a heparin tube. Then, the collected blood was put into an ammonium chloride solution (Stem Cell Technologies, Inc. 1:10) and then placed in ice for 15 minutes, and red blood cells were removed. The resultant solution was shaken every 2 to 3 minutes to remove red blood cells well, and then, centrifuged for 7 minutes at 1000 rpm. The supernatant was removed, and the resultant solution was washed with IMDM (Gibco) supplied with 2% fetal bovine serum (FBS) (Gibco). The washed cells (3×10^5 per mouse) were divided into three 35 mm dishes (1×10^5 per dish) respectively including methylcellulose-based media (Methocult, Stem cell), and then, cultured for 2 weeks. Then, the number of colonies in the flask was counted. In order to check whether mobilization of bone marrow hematopoietic progenitor cells to blood is induced by a decrease in expression level of the adhesion factors caused by administration of Osteopep1 of the present disclosure, a mouse was administered with 50 μg/kg of Osteopep1 by intravenous injection to its tail, and after 60 minutes, blood was collected from the heart. Then, a CFU (Colony-forming unit) assay was conducted thereto.

Assay [2] has the same test system. Nature of the assay: CFU assay: mobilization of bone marrow hematopoietic progenitor cells to blood in osteoporosis model. It counts as in vivo, mice. As to conditions: osteoporosis (ovariectomy) models, 50 μg/kg intraperitoneally every 12 hours for 3 weeks; p<0.05. Here is the method: After 1 week, 50 μg/kg of Osteopep1 (PEPTRON) and 100 μl of PBS (Gibco) were intraperitoneally administered every 12 hours twice per day for 3 weeks. […] In order to measure the number of bone marrow hematopoietic progenitor cells in blood of a mouse, CFU assays were conducted. A mouse was anesthetized, and then, 500 μl to 700 μl of blood was collected from the heart into a heparin tube. Then, the collected blood was put into an ammonium chloride solution (Stem Cell Technologies, Inc. 1:10) and then placed in ice for 15 minutes, and red blood cells were removed. The resultant solution was shaken every 2 to 3 minutes to remove red blood cells well, and then, centrifuged for 7 minutes at 1000 rpm. The supernatant was removed, and the resultant solution was washed with IMDM (Gibco) supplied with 2% fetal bovine serum (FBS) (Gibco). The washed cells (3×10^5 per mouse) were divided into three 35 mm dishes (1×10^5 per dish) respectively including methylcellulose-based media (Methocult, Stem cell), and then, cultured for 2 weeks. Then, the number of colonies in the flask was counted. In order to find out effects of administration of Osteopep1 of the present disclosure on bone marrow hematopoietic progenitor cells mobilized to blood in an osteoporosis model, an experiment was conducted in the same manner as the method of Example 1-4.

Assay [3] has as its system bone marrow hematopoietic stem cells (Lineage, Sca-1, c-kit). Nature of the assay: Flow cytometry (FACs): number of bone marrow hematopoietic stem cells in bone marrow of normal mice. It counts as in vivo, C57BL/6 mice. As to conditions: 50 μg/kg vs PBS, bone marrow harvested after 60 minutes, p<0.05. Here is the method:
In order to find out any change in the number of bone marrow hematopoietic stem cells present in bone marrow of mice, Osteopep1 and PBS were injected to normal mice, respectively. After 60 minutes, bone marrow was harvested, and FACs was conducted to the harvested bone marrow by using three kinds of antibodies including Lineage, Sca-1, and c-kit as markers of bone marrow hematopoietic stem cells.
For analyzing bone marrow hematopoietic stem cells, red blood cells were removed from bone marrow, which was harvested from the tibias and the femurs of a 4-week- to 6-week-old C57BL/6 mouse, with an ammonium chloride solution (Stem Cell Technologies, Inc. 1:4) and then, the bone marrow was washed with a PBS (Gibco) solution including 10% fetal bovine serum (FBS) (Gibco) and 1% sodium azide (Sigma-Aldrich) and centrifuged for 10 minutes at 300×g. The hematopoietic cells included in the bone marrow were removed with MACs beads (Miltenyi Biotec) by using a biotinylated lineage antibody (Miltenyi Biotec), and the remaining cells were reacted at 4° C. for 30 minutes by using Sca-1-PECY7, c-kit-APC, CD150-PE, and CD48-FITC antibodies (BD science) and then analyzed with a flow cytometer LSRII (BD science).
Firstly, normal mice were divided into two groups each including 3 mice, and the respective groups were administered with 50 μg/kg of Osteopep1 and 100 μl of PBS (Gibco). […]
(In general: In flow cytometry, cells or beads pass a laser one at a time.)

Assay [4] has as its system adhesion factors (Sdf-1a, Kitl, Angpt1, IL7, Vcam1, Spp1) for hematopoietic stem cells. In words: Expression level of adhesion factors for hematopoietic stem cells in bone marrow of normal mice (real-time quantitative PCR). The format is in vivo, C57BL/6 mice. The following applies: normal mouse, 50 μg/kg intravenous injection to tail, bone marrow harvested after 60 minutes; p<0.05. Here is the method: Osteopep1 used herein was produced by PEPTRON. For in vitro experiment, 0 nM Osteopep1 and 10 nM Osteopep1 were diluted in respective media and then injected. Further, for in vivo experiment, three mice per group, fifteen mice in total, were anesthetized with a mixed solution of 100 mg/kg of ketamine and 10 mg/kg of xylazine. Further, the each mouse was administered with 50 μg/kg of Osteopep1 and 100 μl of PBS (Gibco) by intravenous injection to its tail.
(§1) In order to measure expression levels of adhesion factors (Sdf-1a, Kitl, Angpt1, IL7, Vcam1, Spp1) for hematopoietic stem cells present in osteoblasts, a real-time quantitative PCR was used.
An RNeasy Plus mini kit (Qiagen, Korea, Ltd.) was used to extract total RNA from a cell eluent and bone marrow cells. A kit produced by Clontech (Mountain View, Calif.) was used to synthesize cDNA from 5 μg of the total RNA. Further, a Corbett research RG-6000 real-time PCR device was used to perform a real-time quantitative PCR repeatedly for 40 cycles under a condition of 95° C. for 10 minutes; 95° C. for 10 seconds; 58° C. for 15 seconds; and 72° C. for 20 seconds per cycle. […]

For assay [5], the system named is bone (femurs). In words: Micro CT of femurs: bone density and trabecular thickness in osteoporosis (ovariectomy) model and control mice. The format is in vivo. As to conditions: osteoporosis model mouse, 50 μg/kg intraperitoneally twice per day for 3 weeks, compared with PBS; micro CT on 22nd day. Here is the method:
After 1 week, 50 μg/kg of Osteopep1 (PEPTRON) and 100 μl of PBS (Gibco) were intraperitoneally administered every 12 hours twice per day for 3 weeks. […] The femurs was separated from the mouse and refrigerated in 80% ethanol. Then, for micro CT scanning, a tissue having a thickness of 40 μm was measured with a micro CT scanner (Inveon preclinical CT, Siemens Healthcare, Hoffman Estates, Ill.) under conditions including an exposure time of 600 msec, photon energy of 70 keV, and a current of 400 μA. In order to measure a bone density (bone volume/total volume) and a trabecular thickness, pieces each having a volume of 2.5×0.5×0 5 mm^3 from the same site of each group were measured with Siemens Inveon Software. […] After 1 week, 50 μg/kg of Osteopep1 (PEPTRON) and 100 μl of PBS (Gibco) were intraperitoneally administered every 12 hours twice per day for 3 weeks. […] On the 22nd day, the femurs was separated from the mouse and refrigerated in 80% ethanol. Then, a bone density and a trabecular thickness were measured by micro CT.

The subject of assay [6] is bone marrow hematopoietic stem cells. In words: Mobilization of bone marrow hematopoietic stem cells to blood in osteoporosis model, by markers of bone marrow hematopoietic stem cells. As to conditions: osteoporosis (ovariectomy) model, 50 μg/kg intraperitoneally every 12 hours for 3 weeks; p<0.05. The format is in vivo, mice. Here is the method: FIG. 9 is a diagram illustrating a mobilization level of bone marrow hematopoietic stem cells to blood when Osteopep1 is administered to an osteoporosis model, by using a marker of a bone marrow hematopoietic stem cell.
(§2) After 1 week, 50 μg/kg of Osteopep1 (PEPTRON) and 100 μl of PBS (Gibco) were intraperitoneally administered every 12 hours twice per day for 3 weeks.
In order to check whether mobilization of bone marrow hematopoietic progenitor cells to blood in an osteoporosis model is induced by Osteopep1 of the present disclosure, the following experiment was conducted.

The subject of assay [7] is adhesion factors for hematopoietic stem cells present in osteoblasts. Nature of the assay: Expression level of adhesion factors in osteoblasts differentiated from BM-MSC (real-time quantitative PCR). As to conditions: osteoblasts treated with 0 nM and 10 nM for three days, compared with untreated Control; p<0.05. The format is cell-based, C57BL/6 mouse.
Text: After a 4-week- to 6-week-old C57BL/6 mouse was anesthetized and sacrificed, the tibias and the femurs were removed. Bone marrow was harvested from the tibias and the femurs, and a single cell suspension was obtained by using a 40 μm cell strainer (Becton-Dickinson LAβware, Franklin Lakes, N.J.). About 10^7 cells were divided in a 75-cm^2 flask including Mesenchymal Stem Cell Stimulatory Supplements (Stem Cell Technologies, Inc.) added with antibiotics and MesenCult™ MSC Basal medium. After being cultured for one week, the cells were cultured for three weeks in StemXVivo Osteogenic/Adipogenic Base Media (R&D systems) added with StemXVivo Osteogenic supplement (20×) and penicillin-streptomycin (100×) for differentiation into osteoblasts. The culture media were replaced every 2 to 3 days.
as §1
An RNeasy Plus mini kit (Qiagen, Korea, Ltd.) was used to extract total RNA from a cell eluent and bone marrow cells. […] Further, a Corbett research RG-6000 real-time PCR device was used to perform a real-time quantitative PCR repeatedly for 40 cycles under a condition of 95° C. for 10 minutes; 95° C. for 10 seconds; 58° C. for 15 seconds; and 72° C. for 20 seconds per cycle. […]

The test system of assay [8] is adhesion factors (Sdf-1a, Kitl, Angpt1, IL7, Vcam1, Spp1) for hematopoietic stem cells. Nature of the assay: Expression of adhesion factors for bone marrow hematopoietic stem cells in osteoporosis model (real-time quantitative PCR). The format is in vivo, mice. As to conditions: osteoporosis (ovariectomy) models, 50 μg/kg intraperitoneally every 12 hours for 3 weeks; p<0.05. Here is the method:
as §2, §1
An RNeasy Plus mini kit (Qiagen, Korea, Ltd.) was used to extract total RNA from a cell eluent and bone marrow cells. A kit produced by Clontech (Mountain View, Calif.) was used to synthesize cDNA from 5 μg of the total RNA. Further, a Corbett research RG-6000 real-time PCR device was used to perform a real-time quantitative PCR repeatedly for 40 cycles under a condition of 95° C. for 10 minutes; 95° C. for 10 seconds; 58° C. for 15 seconds; and 72° C. for 20 seconds per cycle.
After 1 week, 50 μg/kg of Osteopep1 (PEPTRON) and 100 μl of PBS (Gibco) were intraperitoneally administered every 12 hours twice per day for 3 weeks. […] On the 22nd day, the femurs was separated from the mouse and refrigerated in 80% ethanol. Then, a bone density and a trabecular thickness were measured by micro CT. […]

As for DNPGEDAPAEDMARY [Osteopep1], the “mobilization of bone marrow hematopoietic progenitor cells to blood (CFU assay)” value in assay [1] was “increased”. In assay [2], the “mobilization of bone marrow hematopoietic progenitor cells to blood (CFU assay)” value is on record as “increased”. The “bone marrow hematopoietic stem cells marked by Lineage, Sca-1, and c-kit in bone marrow (FACs)” value in assay [3] was “decreased”. Besides, the “expression levels of the main adhesion factors Sdf-1a, Kitl, Angpt1, and Spp1” value in assay [4] is given as “decreased”. For the same sequence, in assay [5], the “bone density percentage (BV/TV, %)” value is on record as “increased” and the “trabecular thickness (mm)” value is “increased”. Also, the “mobilized amounts of the markers of bone marrow hematopoietic stem cells” value in assay [6] is listed as “increased”. For the same sequence, in assay [7], the “expression levels of Sdf-1a, Kitl, and Angpt1 in osteoblasts” value is given as “concentration-dependently decreased”. The “expression levels of the adhesion factors (Sdf-1a, Kitl, Angpt1, IL7, Vcam1, Spp1) for hematopoietic stem cells” value in assay [8] is given as “decreased”.
